Test results from PubChem BioAssay (NCI).
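48-hour exposure; five concentrations; linearly interpolated endpoints. The concentration for full growth arrest is given as TGI.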

How the values were obtained:
Test in all cases: inhibition of tumour cell growth, NCI panel, 48 h
SK-MEL-2 melanoma = system: SK-MEL-2 melanoma
NCI-H522 lung = system: NCI-H522 lung
NCI/ADR-RES ovarian = system: NCI/ADR-RES ovarian
HS 578T breast = system: HS 578T breast
TK-10 renal = system: TK-10 renal
BT-549 breast = system: BT-549 breast
K-562 leukemia = system: K-562 leukemia
IGROV1 ovarian = system: IGROV1 ovarian
CCRF-CEM leukemia = system: CCRF-CEM leukemia
SNB-75 CNS = system: SNB-75 CNS
HCC-2998 colon = system: HCC-2998 colon
RXF 393 renal = system: RXF 393 renal

| SMILES | TGI (SK-MEL-2 melanoma) [µM] | TGI (NCI-H522 lung) [µM] | TGI (NCI/ADR-RES ovarian) [µM] | TGI (HS 578T breast) [µM] | TGI (TK-10 renal) [µM] | TGI (BT-549 breast) [µM] | TGI (K-562 leukemia) [µM] | TGI (IGROV1 ovarian) [µM] | TGI (CCRF-CEM leukemia) [µM] | TGI (SNB-75 CNS) [µM] | TGI (HCC-2998 colon) [µM] | TGI (RXF 393 renal) [µM] |
| --- | --- | --- | --- | --- | --- | --- | --- | --- | --- | --- | --- | --- |
| OCC1CCCCCCCCCCC12SCCCS2 (stereo not given) | > 100 | > 100 | > 100 | > 100 | > 100 | > 100 | > 100 | > 100 | > 100 | > 100 | – | – |
| OCc1ccc2[n+](c1)CCC1c3ccccc3NC21 (stereo not given) | > 300 | > 300 | – | – | > 300 | – | > 300 | > 300 | > 300 | – | > 300 | > 300 |
| COc1cc(-c2cc(=O)c3cc4c(cc3[nH]2)OCO4)cc(OC)c1O | > 10 | > 10 | > 10 | > 10 | > 10 | – | > 10 | > 10 | > 10 | > 10 | > 10 | > 10 |
| Cc1ccc(-c2c(C#N)c(-c3ccccc3)n(NS(=O)(=O)c3ccccc3)c(=O)c2C#N)cc1 | > 100 | > 100 | > 100 | – | > 100 | > 100 | > 100 | > 100 | > 100 | > 100 | > 100 | > 100 |
| Cc1cc(N(CCC#N)CCC#N)ccc1/C=N/NC(=O)c1cc(Cl)ccc1O | > 100 | > 100 | > 100 | > 100 | > 100 | – | – | > 100 | > 100 | > 100 | > 100 | > 100 |
| O=C(CC(=O)n1nc(-c2ccccc2)c(N=Nc2ccccc2C(=O)O)c1-c1ccccc1)Nc1ccc(Cl)cc1 | > 100 | – | – | > 100 | > 100 | 93 | > 100 | > 100 | – | 83.1 | > 100 | 80.8 |
| CC1=C2C(=O)NN=C2CCN1c1ccc(Br)cc1 | > 100 | > 100 | > 100 | > 100 | > 100 | 75.1 | – | > 100 | 8.26 | > 100 | – | – |
| O=C(CN1c2ccccc2Sc2ccccc21)N1CCNCC1 | > 100 | – | > 100 | > 100 | > 100 | > 100 | > 100 | > 100 | > 100 | > 100 | – | > 100 |
| Cc1nc2cccc([N+](=O)[O-])c2c(NCCCN(C)C)c1C | > 85.6 | 40.6 | > 100 | > 100 | > 55.1 | – | > 76.9 | > 100 | > 75.2 | > 100 | > 54.3 | > 100 |
| NC(N)=NS(=O)(=O)c1ccc(NCc2c3ccccc3[n+]([O-])c3ccccc23)cc1 | > 100 | > 100 | – | – | > 100 | – | > 100 | > 100 | 84.4 | 84.8 | > 100 | – |
| CC(C)(C)C1=C(Br)C(Br)(C(C)(C)C)OP1(=O)c1ccccc1 (stereo not given) | > 100 | > 100 | > 100 | > 100 | > 100 | – | > 100 | > 100 | – | > 100 | > 100 | > 100 |
| CN(C)CCCOC(=O)C(c1ccccc1)C1(O)CCSCC1 (stereo not given) | > 100 | > 100 | > 100 | > 100 | > 100 | – | > 100 | > 100 | > 100 | > 100 | > 100 | > 100 |
| COc1ccc(C(C#N)NNC(=O)c2ccccc2O)cc1OC (stereo not given) | 78.2 | 30.1 | – | – | > 100 | – | > 100 | > 100 | > 100 | > 100 | – | 36.4 |
| CCOC(=O)C1Cc2[nH]c3ccccc3c2C(C)C1C (stereo not given) | 36 | 26.6 | – | – | 76 | – | > 100 | 33.9 | 57.4 | 34.4 | – | – |
| Cc1nnc(Nc2ccccc2)o1 | > 100 | > 100 | > 100 | – | > 100 | – | > 100 | – | > 100 | > 100 | – | > 100 |
| Nc1cc(CO)cc(Nc2nc3ccc(Cl)cc3c3[nH]c4ccccc4c23)c1 | 15 | 12.7 | 42.5 | 36.5 | 21.3 | 24.6 | 27.3 | 8.93 | 23.8 | – | – | – |
| NC(C(F)(F)F)(C(F)(F)F)P(=O)(Cc1ccccc1)Cc1ccccc1 | > 100 | – | > 100 | > 100 | > 100 | > 100 | > 100 | > 100 | > 100 | > 100 | > 100 | > 100 |
| O=C1CCC[C@@H]2NC[C@@H](c3ccc4c(c3)OCO4)[C@H]12 | > 25 | > 25 | > 25 | > 25 | > 25 | – | > 25 | > 25 | > 25 | > 25 | > 25 | > 25 |
| CC(C)=CCOC(=O)C(C)=[N+]=[N-] | – | > 100 | > 100 | > 100 | > 100 | > 100 | > 100 | > 100 | – | > 100 | > 100 | – |
| CC1(C)OCC(COC(=O)C=[N+]=[N-])O1 (stereo not given) | > 100 | > 100 | – | – | > 100 | > 100 | – | > 100 | > 100 | – | > 100 | > 100 |
| C[C@@]12[C@H]3CC[C@@H]1[C@H](O)C(=O)N2CC3 | > 100 | > 100 | > 100 | > 100 | > 100 | – | > 100 | > 100 | > 100 | > 100 | > 100 | > 100 |
